# Test results taken from patent publication US20130096145A1, “Use of 1H-quinazoline-2,4-diones” (Novartis AG, priority 2010, published 2013).
# How the values were obtained:
# OF1 mice = assay: Murine maximal electroshock test (MES Test); assay type: in vivo; details: 1 h; for MES-Test (1 h, po) protection @50: percentage of protected mice (5 per condition) @50, p.o.
# Procedure: (§1) Compounds of the invention were tested in OF1 mice using the maximal electroshock test (MES Test) described in detail by Schmutz et al., Naunyn-Schmiedeberg's Arch Pharmacol 1990, 342, 61-66. Briefly, generalized tonic-clonic convulsions of the hind extremities were induced by passing electrical current through temporal electrodes (50 Hz, 18 mA, 0.2s). […] 30 mg/kg carbamazepine was used as a positive control; mice were classified as protected by a compound if the duration of the seizure lasted only 3 second or less. Five mice were used for each treatment condition and the percentage of protected mice was used as readout (i.e. a compound could give 0%, 20%, 40%, 60%, 80% or 100% protection). Compounds of the invention were given at a dose of 50 mg/kg, p.o., 1 hour prior to induction of convulsions (i.e. “pre-treatment time -1 h”). ED50 values (ED: effective dose) were calculated using GraphPad Prism, v4.02. 15 s after shock administration, mouse blood was collected for determination of compounds' blood exposure.
# mouse = assay: Oral bioavailability: audiogenic mouse test and/or MES test; assay type: in vivo; details: oral administration
# Procedure: The oral bioavailability was tested using the audiogenic mouse test (Audiogenic seizures, R. L. Collins; Chapter 14, pages: 347-372. In: Experimental Models of Epilepsy; By: Pupura, Penry, Tower, Woodbury, Walter, Raven Press, New York, 1972. Standard Book Number: 0-911216-26-X) and/or the MES test.
# as §1
SMILES,"MES-Test (1 h, po) protection @50 (OF1 mice) [% @50]",In vivo orally active (mouse),"MES-Test (1 h, po) protection @20 (OF1 mice; percentage of protected mice (5 per condition) @20, p.o.) [% @20]"
"CCc1cc2[nH]c(=O)n(NS(C)(=O)=O)c(=O)c2cc1-c1ccnn1C(C)C [Compound C-6, N-[7-Ethyl-6-(2-isopropyl-2H-pyrazol-3-yl)-2,4-dioxo-1,4-dihydro-2H-quinazolin-3-yl]-methanesulfonamide]",20,yes,–
"CC(C)c1cc2[nH]c(=O)n(NS(C)(=O)=O)c(=O)c2cc1-c1ccnn1C(C)C [Compound C-8, N-[7-Isopropyl-6-(2-isopropyl-2H-pyrazol-3-yl)-2,4-dioxo-1,4-dihydro-2H-quinazolin-3-yl]-methanesulfonamide]",40,yes,–
"Cn1nccc1-c1cc2c(=O)n(NS(C)(=O)=O)c(=O)[nH]c2cc1C(C)(F)F [Compound C-15, N-[7-(1,1-difluoro-ethyl)-6-(2-methyl-2H-pyrazol-3-yl)-2,4-dioxo-1,4-dihydro-2H-quinazolin-3-yl]-methanesulfonamide]",–,Yes,80
